Data from patent US20180339016A1 (priority 2015, published 2018).

How the values were obtained:
E. coli ATCC 25922 [1] = assay: Antibiotic interaction assay (Wimley), 2/3 broth microdilution: MIC alone, MIC of combination, FICI; format: cell-based
In short: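 Broth microdilution in MH broth with ⅔-fold serial dilutions: each compound alone and a half-and-half peptide/drug mix, inoculum 5×10^5 CFU/mL. Incubation at 37° C for 18 h, growth read as OD600. Synergy expressed as FICI.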

Gram-positive bacteria [2] = conditions: previously examined peptide; cited from earlier work
[3] = test system: Escherichia coli (ATCC 25922); conditions: peptide alone; peptide concentration required to inhibit growth by 20% (so in the source)
In short: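 Broth microdilution in MH broth with ⅔-fold serial compound dilutions; overnight E. coli culture inoculated at 5×10^5 CFU/mL. After 18 h at 37 °C, growth read as OD600, with viability (%) calculated relative to positive and negative control wells.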

Gram-positive bacteria [4] = assay: Entry of peptide into Gram-positive bacteria; format: cell-based; conditions: data not shown
Text: (§1) […]. […] […].

E. coli ATCC 25922 [5] = conditions: Table 4
MDA MB231 cells = assay: FACS penetration of eukaryotic cells; format: cell-based; conditions: 5 microM
Text: as §1

[6] = test system: Staphylococcus aureus (ATCC 29213); assay: MIC of peptide against S. aureus; format: cell-based; conditions: peptide alone
Protocol: The N-terminus of the peptides were acetylated and the C-terminus was amidated. The kinked structure can rapidly reduce the alpha-helical content, thereby greatly reducing the toxicity of the peptide against host cells. In addition, because of the potential to show specificity for the Gram-negative bacterial membrane, Pro-mutants were prepared by site-directed mutagenesis. Using the prepared peptides, their MIC for the Gram-negative bacterium E. coli and the Gram-positive bacterium S. aureus and their hemolytic activity for host cells were examined (Table 1).

E. coli = assay: FACS of TAMRA-labeled peptides entering Gram-negative bacteria; format: cell-based

## RAGLQFPVGRVHRLLRK [buforin 5-20]
E. coli ATCC 25922 [1]; labelled peptide + colistin
  FICI of peptide with colistin: 0.5
E. coli ATCC 25922 [1]; labelled peptide + linezolid
  FICI of peptide with linezolid: 0.7
Gram-positive bacteria [2]
  activity against Gram-positive bacteria: no activity against Gram-positive bacteria
[3]
  MIC [μM] Against E. coli: 20 µM

## LKKLLKLPKKLLKL [LK-L8P]
Gram-positive bacteria [4]
  entry into Gram-positive bacteria: did not enter Gram-positive bacteria
E. coli ATCC 25922 [5]
  Fractional Inhibitory Concentration Index (FICI), Colistin & 1 μM peptide: 0.83, Synergism
E. coli ATCC 25922 [5]; bacterial growth <10% of control
  MIC (μM) against E. coli ATCC 25922, Peptide alone: 3 µM
MDA MB231 cells
  penetration of eukaryotic cells: did not penetrate eukaryotic cells
[3]
  MIC [μM] Against E. coli: 10 µM
[6]
  MIC [μM] Against S. aureus: >40 µM
E. coli; TAMRA-labeled, FIG. 1
  extent to which the mutated peptides entered Gram-negative bacteria (order): P>>N=D>Q=E
E. coli; peptide about 2.5 microM
  portion of the peptide that entered Gram-negative bacteria: about 60%
